The values that follow come from patent US12195451B2 (priority 2015, dated 2025).

The structures appear in SMILES notation.

The subject of data set [1] is ICP0-null HSV-N212eGFP. Format: cell-based, Herpes Simplex Virus type-1 (HSV-1).
Data set [2] concerns Influenza H1N1 A/Puerto Rico/8/34 (PR8). Format: cell-based.
In data set [3] the test system is adenovirus expressing firefly luciferase. Format: cell-based, Adenovirus Serotype 5.
Data set [4] concerns Salmonella typhimurium strains TA98 and TA100.
For data set [5], the system named is MVA-eGFP. Format: cell-based, modified vaccine ankara (MVA). Particulars: human renal carcinoma (786-0) cells; infected after 4 hours, MOI 0.01; 48 h and 64 h after infection.
The test system of data set [6] is adenovirus expressing firefly luciferase. The experiment in a line: Adenovirus transduction in normal mouse muscle tissue cores. Particulars: 10, 20 or 40 uM for 4 hours, 1×10^7 pfu/well, 36 hours post-infection. The format is cell-based, Adenovirus Serotype 5.
Data set [7] has as its system adeno-associated virus expressing firefly luciferase. The format is cell-based, AAV serotype 6.
In data set [8] the test system is adenovirus expressing firefly luciferase. Nature of the data set: Adenovirus transduction in normal mouse brain tissue cores. The format is cell-based, Adenovirus Serotype 5. Particulars: 10, 20 or 40 uM for 4 hours, 1×10^7 pfu/well, 36 hours post-infection.
Data set [9] shares this test system. The experiment in a line: Adenovirus transduction in A549 cancer cells (MOI 0.1, luciferase luminescence). The format is cell-based, Adenovirus Serotype 5. Particulars: pre-treated 2 hours at 21 uM to 120 or 160 uM, 40 hours post-infection.
Data set [10] has as its system A/FM1 (H1N1). The arrangement: species or system Influenza A H1N1. Particulars: in vivo.
For data set [11], the system named is IFN-responsive promoter. Particulars: cited from earlier work.
Data set [12] relates to VSV-Maraba-MG1-eGFP virus. The format is cell-based, Maraba MG-1.
For data set [13], the system named is virus-induced cellular genes. Particulars: gene expression microarrays; cited from earlier work.
Data set [14] deals with IFN-responsive U251 human glioma cells. Particulars: cited from earlier work.

Turning to `COc1ccccc1CN1C(=O)C(Cl)=C(Cl)C1O` (stereo not drawn) [CM01025, 3,4-Dichloro-5-hydroxy-1-(2-methoxy-benzyl)-1,5-dihydro-pyrrol-2-one], in data set [1], the “HSV-1 replication (eGFP fluorescence and HSV titers)” value (from here on “HSV-1 replication”) was “enhance Herpes Simplex Virus type-1 (HSV-1) replication”.

As for `CN1C(=O)C(Cl)=C(Cl)C1O` (stereo not drawn) [CM01031, 3,4-Dichloro-5-hydroxy-1-methyl-1,5-dihydro-pyrrol-2-one], in data set [2], the “PR8 titers, MDCK (NBL-2) cells” value is “Enhancement of PR8” and the “PR8 titers, MDCK.2 cells” value is recorded as “Enhancement of PR8”.

Consider `O=C1C(Cl)=C(Cl)C(O)N1Cc1ccccc1` (stereo not drawn) [MD01145, α,β-dichloro-γ-hydroxy-N-benzyl-crotonic lactam], for which, in data set [3], the “adenovirus vector production (luciferase activity, fold increase vs untreated)” value was “enhance the production”. In [4], the “dose-dependent increase in the number of revertants” value was “does not produce a dose-dependent increase” and the mutagenic potential entry is “not mutagenic”. For the same compound, in data set [5], the “MVA vaccine strain infection of cells (eGFP fluorescence)” value (“MVA vaccine strain infection of cells” below) is “can be enhanced”. Besides, the “HSV-1 replication” value in [1] is given as “enhance Herpes Simplex Virus type-1 (HSV-1) replication”. In addition, in [6], the “Adenovirus transduction in normal muscle tissue” value is given as “enhance adenovirus transduction”. Moreover, in data set [7], the “adeno-associated virus vector production (luciferase activity, fold increase vs untreated)” value is reported as “enhance the production”. Besides, in data set [8], the “Adenovirus transduction in normal brain tissue” value is reported as “enhance Adenovirus transduction”.

As for `C#CCN1C(=O)C(Cl)=C(Cl)C1O` (stereo not drawn) [MD01151, 3,4-Dichloro-5-hydroxy-1-prop-2-ynyl-1,5-dihydro-pyrrol-2-one], in data set [5], the “MVA vaccine strain infection of cells” value is recorded as “can be enhanced”. For the same compound, the “Adenovirus transduction in cancer cells (fold increase luciferase luminescence vs adenovirus alone)” value in data set [9] is listed as “enhance Adenovirus transduction”. Further, the “HSV-1 replication” value in data set [1] is listed as “enhance Herpes Simplex Virus type-1 (HSV-1) replication”.

With `O=c1[nH]ncc(Cl)c1Cl` [MD02026, 4,5-Dichloro-2H-pyridazin-3-one], the “adenovirus vector production (luciferase activity, fold increase vs untreated)” value in data set [3] is given as “enhance the production”. Besides, the “MVA vaccine strain infection of cells” value in data set [5] is on record as “can be enhanced”. Also, the “Adenovirus transduction in normal muscle tissue” value in data set [6] is “enhance adenovirus transduction”. The “adeno-associated virus vector production (luciferase activity, fold increase vs untreated)” value in data set [7] is “enhance the production”. Also, the “Adenovirus transduction in normal brain tissue” value in data set [8] was “enhance Adenovirus transduction”.

In the case of `O=C1C(Cl)=C(Cl)C(O)N1CCc1ccccc1` (stereo not drawn) [MD03009, 3,4-dichloro-5-hydroxy-1-phenethyl-1H-pyrrol-2(5H)-one], the “MVA vaccine strain infection of cells” value in data set [5] is given as “can be enhanced”. In addition, in data set [9], the “Adenovirus transduction in cancer cells (fold increase luciferase luminescence vs adenovirus alone)” value is on record as “enhance Adenovirus transduction”.

As for `O=C1C(Cl)=C(Cl)C(O)N1CCN1CCOCC1` (stereo not drawn) [MD03011, 3,4-dichloro-5-hydroxy-1-(2-morpholinoethyl)-1H-pyrrol-2(5H)-one], the “MVA vaccine strain infection of cells” value in data set [5] is given as “can be enhanced”. In addition, the “Adenovirus transduction in cancer cells (fold increase luciferase luminescence vs adenovirus alone)” value in data set [9] is given as “enhance Adenovirus transduction”. Further, the “A/FM1 (H1N1) production in ovo (plaque assay titer, HA titer by HPLC AUC)” value in data set [10] was “enhances A/FM1 (H1N1) production”. Also, the “Adenovirus transduction in normal muscle tissue” value in data set [6] is recorded as “enhance adenovirus transduction”. For the same compound, in [8], the “Adenovirus transduction in normal brain tissue” value is listed as “enhance Adenovirus transduction”.

`COS(C)(=O)=O` [MMS, methyl methanesulfonate, reference compound]: in data set [4], the “reversion rate (number of revertants)” value is “high number of revertants”.

With `O=C1OC(c2ccccc2)C(Cl)=C1Cl` (stereo not drawn) [VSe1, 3,4-dichloro-5-phenyl-2,5-dihydrofuran-2-one, reference compound], the “adenovirus vector production (luciferase activity, fold increase vs untreated)” value in data set [3] was “enhance the production”. Also, the IFN-induced transcriptional activity entry in data set [11] is “inhibit IFN-induced transcriptional activity”. Besides, in [12], the “replication / spread of oncolytic virus MG1 (eGFP expression)” value was “enhance the replication”. Besides, in data set [5], the “MVA vaccine strain infection of cells” value is reported as “can be enhanced”. Further, the “Adenovirus transduction in cancer cells (fold increase luciferase luminescence vs adenovirus alone)” value in [9] is “enhance Adenovirus transduction”. Besides, the “HSV-1 replication” value in data set [1] is reported as “enhance Herpes Simplex Virus type-1 (HSV-1) replication”. For the same compound, the “virus-induced cellular genes whose transcription is repressed” value in data set [13] was above 95%. In addition, in [7], the “adeno-associated virus vector production (luciferase activity, fold increase vs untreated)” value was “enhance the production”. Moreover, the “IFN-mediated protection of cells to VSVΔ51 infection” value in [14] is recorded as “suppress IFN-mediated protection”.
